Assay results as given in patent US6127339A, “Peptide for binding thereto a low density lipoprotein” (Asahi Kasei Kogyo Kabushiki Kaisha, priority 1995, dated 2000).
No end group written: not given here.

Tested on: LDL
Assay: Staining of peptide-bonded resin with biotinylated LDL in plasma (ABC method)
Type: binding
Design: key: the peptide-bonded resins which were stained are indicated with "+ (plus)"; the peptide-bonded resins which were not stained are indicated with "- (minus)"
Description: With respect to the adsorbent comprising the water-insoluble carrier having bonded thereto the peptide, as a method for evaluating the binding ability (affinity) of the adsorbent for an LDL, there can be mentioned a method in which, after causing an LDL to be adsorbed on the adsorbent, the adsorbent having the LDL adsorbed thereon is subjected to staining (avidin-biotin complex method, that is, ABC method). Specifically, a biotinylated LDL is added to plasma, and the adsorbent is immersed in the plasma for a predetermined period of time. Then, the adsorbent is taken out of the plasma, and washed. Subsequently, the adsorbent is immersed in a horseradish peroxidase-labeled streptoavidin solution, and a solution of 3,3'-diamino benzidine, which is a substrate for the above-mentioned enzyme (horseradish peroxidase), is added thereto, thereby staining the adsorbent. The binding ability of the adsorbent for LDL is evaluated from the degree of the staining. With respect to methods for evaluating a binding ability for LDL, reference can be made to, for example, the following literature: S. M. Hsu, L. Raine, H. Fanger, J. Histchem. Cytochem., 29, 577 (1981); and H. Towbin, T. Staehelin, J. Gordon, Proc. Natl. Acad. Sci. U.S.A., 76, 4350 (1979).
The ability of each of the peptides to bind thereto an LDL was evaluated as follows. To a blood sample obtained from a healthy person was added a 3.8% aqueous solution of sodium citrate to thereby obtain a mixture. The obtained mixture was centrifuged to separate the blood sample into a blood cells component and a plasma component.
On the other hand, each of the above-mentioned polystyrene resins having bonded thereto the above-synthesized peptides was individually taken out from the synthesis reaction system and packed in a column having a filter (manufactured and sold by Bio-Rad laboratories, U.S.A.). Subsequently, the plasma-LDL mixture prepared above was added to the column, and the column was allowed to stand at room temperature for 1 hour. Then, the column was washed with a physiological saline containing 0.1% Tween 20 and sodium phosphate. After the washing, 1 ml of a horseradish peroxidase-labeled streptoavidine (0.2 ug/ml) solution containing 10% Block Ace (manufacturedand sold by Dainippon Pharmaceutical Co., Ltd., Japan) was added to the column, and the column was allowed to stand at room temperature for 30 minutes. Then, 1 ml of a 3,3'-diaminobenzidine tetrahydrochloride ([…]) solution containing 0.005% hydrogen peroxide was added to the column (by the addition of this solution, when a peptide-bonded resin contained in the column has the LDL bonded thereto, the resin is stained to assume brown color).
Results are shown in Table 1, wherein the peptide-bonded resins which were stained are indicated with "+ (plus)" and the peptide-bonded resins which were not stained are indicated with "- (minus)".
The ability of each of the peptides to bind thereto an LDL was evaluated in substantially the same manner as in Example 1.

[1] = Table 2, peptide-bonded TG resin, same manner as Example 1
[2] = Table 1, peptide-bonded TG resin, room temperature 1 hour, peroxidase-streptoavidin/3,3'-diaminobenzidine

Substance | Stain [1] | Stain [2]
Example 2 Sample 11: pentapeptide N1-N5 = F F W R G, bonded to TG polystyrene resin (FFWRG; not fully specified; printed as Phe Phe Trp Arg Gly) | + | 
Comparative Example 2 Sample 1: comparative pentapeptide N1-N5 = T H R Q R, bonded to TG polystyrene resin (THRQR; not fully specified; printed as Thr His Arg Gln Arg) [reference compound] | - | 
Comparative Example 1 Sample 3: comparative pentapeptide N1-N5 = L H R H L, bonded to TG polystyrene resin (LHRHL; not fully specified; printed as Leu His Arg His Leu) [reference compound] |  | -
Example 2 Sample 3: pentapeptide N1-N5 = R W I L Q, bonded to TG polystyrene resin (RWILQ; not fully specified; printed as Arg Trp Ile Leu Gln) | + | 
Comparative Example 2 Sample 12: comparative pentapeptide N1-N5 = E A K H E, bonded to TG polystyrene resin (EAKHE; not fully specified; printed as Glu Ala Lys His Glu) [reference compound] | - | 
Comparative Example 2 Sample 9: comparative pentapeptide N1-N5 = E W S M T, bonded to TG polystyrene resin (EWSMT; not fully specified; printed as Glu Trp Ser Met Thr) [reference compound] | - | 
Example 1 Sample 3: pentapeptide N1-N5 = W Q R H F, bonded to TG polystyrene resin (WQRHF; not fully specified; printed as Trp Gln Arg His Phe) |  | +
Comparative Example 2 Sample 13: comparative pentapeptide N1-N5 = F N F E S, bonded to TG polystyrene resin (FNFES; not fully specified; printed as Phe Asn Phe Glu Ser) [reference compound] | - | 
Example 2 Sample 9: pentapeptide N1-N5 = Y Y R W F, bonded to TG polystyrene resin (YYRWF; not fully specified; printed as Tyr Tyr Arg Trp Phe) | + | 
Comparative Example 1 Sample 4: comparative pentapeptide N1-N5 = L T M K M, bonded to TG polystyrene resin (LTMKM; not fully specified; printed as Leu Thr Met Lys Met) [reference compound] |  | -
Example 1 Sample 2: pentapeptide N1-N5 = F K I W W, bonded to TG polystyrene resin (FKIWW; not fully specified; printed as Phe Lys Ile Trp Trp) |  | +
Example 2 Sample 5: pentapeptide N1-N5 = R Y A F W, bonded to TG polystyrene resin (RYAFW; not fully specified; printed as Arg Tyr Ala Phe Trp) | + | 
Comparative Example 1 Sample 1: comparative pentapeptide N1-N5 = R A H I N, bonded to TG polystyrene resin (RAHIN; not fully specified; printed as Arg Ala His Ile Asn) [reference compound] |  | -
Example 2 Sample 1: pentapeptide N1-N5 = W T A R R, bonded to TG polystyrene resin (WTARR; not fully specified; printed as Trp Thr Ala Arg Arg) | + | 
Example 2 Sample 14: pentapeptide N1-N5 = W L M W R, bonded to TG polystyrene resin (WLMWR; not fully specified; printed as Trp Leu Met Trp Arg) | + | 
Example 2 Sample 4: pentapeptide N1-N5 = R F W L F, bonded to TG polystyrene resin (RFWLF; not fully specified; printed as Arg Phe Trp Leu Phe) | + | 
Comparative Example 2 Sample 8: comparative pentapeptide N1-N5 = H A S N P, bonded to TG polystyrene resin (HASNP; not fully specified; printed as His Ala Ser Asn Pro) [reference compound] | - | 
Comparative Example 1 Sample 5: comparative pentapeptide N1-N5 = M L T V R, bonded to TG polystyrene resin (MLTVR; not fully specified; printed as Met Leu Thr Val Arg) [reference compound] |  | -
Comparative Example 2 Sample 5: comparative pentapeptide N1-N5 = H W V V H, bonded to TG polystyrene resin (HWVVH; not fully specified; printed as His Trp Val Val His) [reference compound] | - | 
Comparative Example 2 Sample 6: comparative pentapeptide N1-N5 = Y I Q V W, bonded to TG polystyrene resin (YIQVW; not fully specified; printed as Tyr Ile Gln Val Trp) [reference compound] | - | 
Example 1 Sample 5: pentapeptide N1-N5 = W A L Y R, bonded to TG polystyrene resin (WALYR; not fully specified; printed as Trp Ala Leu Tyr Arg) |  | +
Example 1 Sample 4: pentapeptide N1-N5 = I F Y K W, bonded to TG polystyrene resin (IFYKW; not fully specified; printed as Ile Phe Tyr Lys Trp) |  | +
Example 2 Sample 2: pentapeptide N1-N5 = F A Y R R, bonded to TG polystyrene resin (FAYRR; not fully specified; printed as Phe Ala Tyr Arg Arg) | + | 
Comparative Example 2 Sample 14: comparative pentapeptide N1-N5 = V E E M E, bonded to TG polystyrene resin (VEEME; not fully specified) [reference compound] | - | 
Comparative Example 2 Sample 2: comparative pentapeptide N1-N5 = H Y Y L Q, bonded to TG polystyrene resin (HYYLQ; not fully specified; printed as His Tyr Tyr Leu Gln) [reference compound] | - | 
Comparative Example 2 Sample 7: comparative pentapeptide N1-N5 = F G A I V, bonded to TG polystyrene resin (FGAIV; not fully specified; printed as Phe Gly Ala Ile Val) [reference compound] | - | 
Comparative Example 2 Sample 11: comparative pentapeptide N1-N5 = W V D H N, bonded to TG polystyrene resin (WVDHN; not fully specified; printed as Trp Val Asp His Asn) [reference compound] | - | 
Example 2 Sample 13: pentapeptide N1-N5 = F L M R F, bonded to TG polystyrene resin (FLMRF; not fully specified; printed as Phe Leu Met Arg Phe) | + | 
Example 2 Sample 8: pentapeptide N1-N5 = L K W F Q, bonded to TG polystyrene resin (LKWFQ; not fully specified; printed as Leu Lys Trp Phe Gln) | + | 
Comparative Example 2 Sample 3: comparative pentapeptide N1-N5 = W H V Q T, bonded to TG polystyrene resin (WHVQT; not fully specified; printed as Trp His Val Gln Thr) [reference compound] | - | 
